Results taken from ChEMBL document CHEMBL5113519, “Discovery of Novel Imidazo[4,5-c]quinoline Derivatives to Treat Inflammatory Bowel Disease (IBD) by Inhibiting Multiple Proinflammatory Signaling Pathways and Restoring Intestinal Homeostasis” (J Med Chem, 2022).
Calls of active or inactive are those of the source. The rule behind the calls is not given here.

What was measured:
[1] = system: THP1-Dual; assay: Anti-inflammatory activity against LPS-stimulated human THP1-Dual cells assessed as reduction in phosphorylation of NF-kappa B level incubated for 6 hrs by Western blot analysis; type: functional, cell-based; settings: dose 0.33-3 µM, DDE = dose-dependent effect
[2] = Toxicity in mouse assessed as change in body weight at 50 mg/kg measured upto 2 weeks; type: organism-based; settings: in vivo, 336 h
[3] = Toxicity in mouse assessed as abnormal change in lung at 20 to 50 mg/kg, IG measured upto 2 weeks; type: organism-based; settings: in vivo, po, 336 h, dose 20-50 mg/kg
[4] = system: Mus musculus; assay: Antiinflammatory activity in DSS-induced acute colitis C57BL/6 mouse model assessed as reduction in number of goblet cells in colon by measuring histopathological score at 1 to 3 mg/kg, po by H and E staining based analysis; type: functional, organism-based; settings: dose 1-3 mg/kg
[5] = system: THP1-Dual; assay: Inhibition of LPS induced IL12b expression in human THP1-Dual cells at 1 uM incubated for 6 hrs; type: functional, cell-based
[6] = Toxicity in mouse assessed as abnormal change in liver at 20 to 50 mg/kg, IG measured upto 2 weeks; type: organism-based; settings: in vivo, po, 336 h, dose 20-50 mg/kg
[7] = system: THP1-Dual; assay: Anti-inflammatory activity against LPS-stimulated human THP1-Dual cells assessed as inhibition of IL-6 secretion incubated for 6 hrs followed by LPS stimulation by Western blot analysis; type: functional, cell-based; settings: dose 0.33-3 µM, DDE = dose-dependent effect
[8] = system: Mus musculus; assay: Anti-inflammatory activity in TNBS induced IBD BALB/c mouse model assessed as reduction in weight by measuring disease activity index score at 1 to 5 mg/kg via oral gavage administered daily for 12 days measured daily; type: functional, organism-based; settings: dose 1-5 mg/kg, time 12.0 day
[9] = system: THP1-Dual; assay: Downregulation of complement system in human THP1-Dual cells at 1 uM incubated for 6 hrs; type: functional, cell-based
[10] = Toxicity in mouse assessed as effect on neutrophils number at 20 to 50 mg/kg, IG measured upto 2 weeks; type: organism-based; settings: in vivo, po, 336 h, dose 20-50 mg/kg
[11] = system: Mus musculus; assay: Anti-inflammatory bowel disease activity in DSS-induced acute enteritis mouse model assessed as decrese in lactobacillus abundance at 3 mg/kg; type: functional, organism-based
[12] = system: Mus musculus; assay: Antiinflammatory activity in DSS-induced acute colitis C57BL/6 mouse model assessed as reduction in colon villi integrity in colon by measuring histopathological score at 1 to 3 mg/kg, po by H and E staining based analysis; type: functional, organism-based; settings: dose 1-3 mg/kg
[13] = system: Mus musculus; assay: Anti-inflammatory bowel disease activity in DSS-induced acute enteritis mouse model assessed as decrese in bacteroides abundance at 3 mg/kg; type: functional, organism-based
[14] = Toxicity in mouse assessed as drug tolerability at 20 to 50 mg/kg, IG measured upto 2 weeks; type: organism-based; settings: in vivo, po, 336 h, dose 20-50 mg/kg
[15] = system: Mus musculus; assay: Antiinflammatory activity in DSS-induced acute colitis C57BL/6 mouse model assessed as reduction in weight loss by measuring DAI score at 1 to 3 mg/kg, po administered daily and measured upto 11 days; type: functional, organism-based; settings: dose 1-3 mg/kg, time <= 11.0 day
[16] = Toxicity in mouse assessed as abnormal change in heart at 20 to 50 mg/kg, IG measured upto 2 weeks; type: organism-based; settings: in vivo, po, 336 h, dose 20-50 mg/kg
[17] = system: THP1-Dual; assay: Downregulation of unfolded protein response in human THP1-Dual cells at 1 uM incubated for 6 hrs; type: functional, cell-based
[18] = Toxicity in mouse assessed as abnormal change in spleen at 20 to 50 mg/kg, IG measured upto 2 weeks; type: organism-based; settings: in vivo, po, 336 h, dose 20-50 mg/kg
[19] = system: THP1-Dual; assay: Downregulation of IFN-gamma in human THP1-Dual cells at 1 uM incubated for 6 hrs; type: functional, cell-based
[20] = target: Tyrosine-protein kinase JAK2 (Homo sapiens, UniProt O60674)
Tyrosine-protein kinase JAK2, sequence (O60674 whole entry): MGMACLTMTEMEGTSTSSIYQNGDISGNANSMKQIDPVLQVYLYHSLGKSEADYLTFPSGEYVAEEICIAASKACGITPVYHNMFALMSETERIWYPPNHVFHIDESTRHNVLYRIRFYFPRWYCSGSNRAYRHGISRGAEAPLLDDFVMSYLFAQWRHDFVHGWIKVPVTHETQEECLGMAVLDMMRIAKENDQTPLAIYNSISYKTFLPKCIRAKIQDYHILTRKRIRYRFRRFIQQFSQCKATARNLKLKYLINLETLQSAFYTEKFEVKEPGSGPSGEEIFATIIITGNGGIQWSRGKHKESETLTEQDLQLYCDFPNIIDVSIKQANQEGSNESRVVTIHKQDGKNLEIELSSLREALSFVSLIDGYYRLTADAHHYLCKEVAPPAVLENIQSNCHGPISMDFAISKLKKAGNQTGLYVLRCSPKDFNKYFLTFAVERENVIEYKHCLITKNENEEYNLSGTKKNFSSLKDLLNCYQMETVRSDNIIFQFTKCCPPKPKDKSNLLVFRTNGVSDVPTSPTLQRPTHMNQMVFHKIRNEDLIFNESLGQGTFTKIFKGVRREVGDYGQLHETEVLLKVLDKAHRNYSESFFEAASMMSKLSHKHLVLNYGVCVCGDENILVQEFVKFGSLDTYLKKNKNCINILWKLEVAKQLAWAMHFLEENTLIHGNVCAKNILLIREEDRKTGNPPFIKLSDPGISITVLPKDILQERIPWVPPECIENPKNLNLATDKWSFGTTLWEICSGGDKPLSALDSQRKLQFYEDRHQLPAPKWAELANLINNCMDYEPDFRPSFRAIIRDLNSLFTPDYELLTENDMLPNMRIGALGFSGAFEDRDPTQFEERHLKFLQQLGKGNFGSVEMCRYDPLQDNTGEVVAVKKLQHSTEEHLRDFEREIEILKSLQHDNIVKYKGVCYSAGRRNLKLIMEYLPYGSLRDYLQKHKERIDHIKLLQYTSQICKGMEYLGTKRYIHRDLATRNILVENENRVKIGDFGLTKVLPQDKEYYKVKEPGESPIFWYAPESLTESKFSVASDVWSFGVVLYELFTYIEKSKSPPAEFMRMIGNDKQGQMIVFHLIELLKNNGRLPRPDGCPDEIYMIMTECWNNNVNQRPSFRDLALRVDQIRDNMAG
Description: Inhibition of JAK2 (unknown origin) using Kinase/Tyr 6 peptide as substrate incubated for 1 hrs in presence of ATP by fluorescence microplate reader analysis

[21] = system: THP1-Dual; assay: Anti-inflammatory activity against LPS-stimulated human THP1-Dual cells assessed as inhibition of IL-8 secretion incubated for 6 hrs followed by LPS stimulation by Western blot analysis; type: functional, cell-based; settings: dose 0.33-3 µM, DDE = dose-dependent effect
[22] = Cytotoxicity against human HUVEC cells assessed as inhibition of cell growth measured after 24 hrs by CCK-8 method; type: toxicity, cell-based
[23] = system: Mus musculus; assay: Anti-inflammatory activity in TNBS induced IBD BALB/c mouse model assessed as reduction in stool softness by measuring disease activity index score at 1 to 5 mg/kg via oral gavage administered daily for 12 days; type: functional, organism-based; settings: dose 1-5 mg/kg, time 12.0 day
[24] = system: THP1-Dual; assay: Downregulation of IFN-alpha in human THP1-Dual cells at 1 uM incubated for 6 hrs; type: functional, cell-based
[25] = system: Mus musculus; assay: Antiinflammatory activity in DSS-induced acute colitis C57BL/6 mouse model assessed as reduction in lamina propria damage in colon by measuring histopathological score at 1 to 3 mg/kg, po by H and E staining based analysis; type: functional, organism-based; settings: dose 1-3 mg/kg
[26] = system: Mus musculus; assay: Anti-inflammatory bowel disease activity in DSS-induced acute enteritis mouse model assessed as reversal of intestinal microbiota at 3 mg/kg; type: functional, organism-based
[27] = Cytotoxicity against human THP1-Dual cells assessed as inhibition of cell growth measured after 24 hrs by CCK-8 method; type: toxicity, cell-based

For `Cc1nc2cnc3ccc(-c4cc(Cl)c(O)c(Cl)c4)cc3c2n1C1CCN(C)CC1`, the Activity [1] was “Dde”, the Activity [2] was “Non-Toxic” and the Activity [3] was “Non-Toxic”. For the same molecule, the Activity [4] was “Active”, the inhibition [5] was “Active” and the Activity [6] was “Non-Toxic”. For the same molecule, the Activity [7] was “Dde”, the Activity [8] was “Active” and the Activity [9] was “Active”. The Activity [10] was “Non-Toxic”, the Activity [11] was “Active” and the Activity [12] was “Active”. For the same molecule, the Activity [13] was “Active”, the Activity [14] was “Non-Toxic” and the Activity [15] was “Active”. For the same molecule, the Activity [16] was “Non-Toxic”, the Activity [17] was “Active” and the Activity [18] was “Non-Toxic”. The Activity [19] was “Active”, the IC50 [20] was 0.015 µM and the Activity [21] was “Dde”. The IC50 at 24 h [22] was > 10 µM, the Activity [23] was “Active” and the Activity [24] was “Active”. For the same molecule, the Activity [25] was “Active”, the Activity [26] was “Active” and the IC50 at 24 h [27] was 4.3 µM.
